Results taken from US20240189408A1, “COMPOSITIONS AND METHODS FOR REDUCING METHANE EMISSIONS IN RUMINANT POPULATIONS” (Arkea Bio Corp., priority 2022, published 2024).
Several values for one entry are separate records, joined by “and”; a condition that tells them apart may be missing. Identical values can stand only once. Like-named read-outs stand apart in the source and are kept apart here.

Tests used:
Mbb. Ruminantium = details: cited from earlier work
Methanosarcina mazei = details: cited from earlier work
Methanomicrobium mobile = details: cited from earlier work
[1] = Adsorbent study: binding affinity and adsorptive capacity for 3-NOP, HPLC at 230 nm
[2] = 3-NOP to adsorbent ratio study; type: physicochemical; details: 24 hr, HPLC
Procedure: Optimal loading of 3-NOP onto adsorbents was determined by varying ratios of 3-NOP to adsorbent. 3-NOP and adsorbent were speed mixed at 2000 rpm for 1 min at the following ratios by weight: 1:1.5, 1:2, 1:2.5. The adsorbed 3-NOP powder mixture was then placed in distilled water at 1% 3-NOP loading. The solution was allowed to equilibrate for 24 hr and then an aliquot was taken for HPLC to determine the reduction in 3-NOP concentration.

rumen methanogens = details: cited from earlier work
total IgG = assay: Total sera IgG by radial immunodiffusion after IM or SQ vaccination with OVA mRNA LNPs; type: in vivo, dairy cows; details: for Serum IgG Concentration: one line per animal replicate
Procedure: (§1) Bovine nucleic acid vaccination protocols (SQ and IM) were assessed in vivo in the dairy cows through the quantification of the adaptive immune response following inoculation with ovalbumin (OVA). Immune response was assessed by quantifying total IgG and OVA-specific IgG over a 28-day period after vaccination. Both SQ and IM vaccination provided a robust immune response, with IM vaccination providing a higher total immune response than SQ vaccination.
(§2) Dairy cows were dried off for a period of eight days prior to vaccination. Each vaccine formulation was administered either by IM or SQ injection to three animals. In total, 15 animals were vaccinated with LNPs containing mRNA and 6 animals were vaccinated with empty LNPs. Intramuscular injections were delivered into the cow's right neck muscle by veterinary-trained staff using an 18-gauge 1-1.5″ needle. Subcutaneous injections were delivered into the cow's right shoulder by veterinary-trained staff using an 18-gauge 0.5-0.75″ needle. Total blood samples (˜20 mL) were collected by veterinary-trained staff. Samples were collected into 10 mL vacutainer tubes (2×10 mL) from the coccygeal vein (tail vein) by needle puncture. Harvested blood samples were then processed via ultracentrifugation for serum collection. Isolated serum samples were aliquoted, labeled and stored in cryogenic tubes at −20° C. until use.
Sera samples were thawed on ice and total IgG was quantified using Triple J Farms' Ig Radial Immunodiffusion (RID) kits (Cat No. 728411) following the manufacturers recommended protocol.

[3] = LNP encapsulation efficiency, RiboGreen assay; type: physicochemical
How it was run: (§3)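 LNPs were made from mRNA at 0.35 mg/mL with Genvoy-ILM on a NanoAssemblr Ignite, dialysed into Ca/Mg-free DPBS to <0.5% ethanol and 0.2 µm filtered. Size and polydispersity were measured by DLS after 1:10 dilution in DPBS. Encapsulation efficiency was determined by RiboGreen assay per Precision Nanosystems protocol.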

ovalbumin (OVA) = assay: OVA-specific IgG ELISA of sera after IM or SQ vaccination; type: in vivo, dairy cows; details: for OVA-specific IgG, Absorbance (OD450): one line per animal replicate
Procedure: as §1, §2
Sera samples were thawed on ice and total IgG was quantified using NovateinBio's Bovine OVA sIgG Antibody ELISA Kit (Cat No. BG-BVN11731) following the manufacturer's recommended protocol. Each of the animals vaccinated with a construct show a demonstrable OVA-specific IgG response over the 28-day test period.

[4] = LNP size and polydispersity by DLS (Malvern Panalytical); type: physicochemical
How it was run: as §3

[5] = 0.2 g of adsorbent in 10 mL of 1% 3-NOP/H2O, after 24h, control 8.258 mM
[6] = 0.06 to 0.24 mmol/L, dose-dependent

In the case of 3-bromopropanesulfonate [BPS], the “concentration up to which the species appeared resistant” value (shortened to “concentration up”) (Mbb. Ruminantium; pure cultures) is given as 250 µmol/L, the “concentration up” value (Methanosarcina mazei; pure cultures) is given as 250 µmol/L and the “concentration up” value (Methanomicrobium mobile; pure cultures) is given as 250 µmol/L.

For `O=S(=O)([O-])CCBr.[Na+]` [BES, 2-bromoethanesulfonate], the “sensitivity to the inhibitor, ranking of three species” value (from here on “sensitivity to the inhibitor, ranking”) (Mbb. Ruminantium; pure cultures) is listed as “most sensitive”, the “sensitivity to the inhibitor, ranking” value (Methanosarcina mazei; pure cultures) is listed as “least sensitive” and the “sensitivity to the inhibitor, ranking” value (Methanomicrobium mobile; pure cultures) is listed as “intermediate”.

Work on `C[N+](C)(C)CC(=O)O` [Betaine] yielded a 3-NOP concentration [1, 5] of 7.202 mM.

With `O=C([O-])CC(O)(CC(=O)[O-])C(=O)[O-].[Bi+3]` [Bismuth Citrate] the 3-NOP concentration [1, 5] was 8.072 mM.

`O=S(=O)([O-])[O-].O=S(=O)([O-])[O-].O=S(=O)([O-])[O-].[Bi+3].[Bi+3]` [Bismuth Sulfate] gave a 3-NOP concentration [1, 5] of 8.079 mM.

In the case of `O=S(=O)([O-])[O-].[Cu+2]` [Copper Sulfate], the 3-NOP concentration [1, 5] is reported as 7.814 mM.

Work on `NC(=O)CC[C@H](N)C(=O)O` [Glutamine] yielded a 3-NOP concentration [1, 5] of 7.588 mM.

In the case of `NCCCC[C@H](N)C(=O)O` [Lysine], the 3-NOP concentration [1] is reported as 18.583 mM, the “Average Integrated Area of 3-NOP in solution” value (from here on “Average Integrated Area”) ([2]; 3-NOP:Adsorbent 1:1.5, distilled water at 1% 3-NOP loading) is reported as 2336.2 and the “Average Integrated Area” value ([2]; 3-NOP:Adsorbent 1:2, distilled water at 1% 3-NOP loading) is reported as 2308.9. The “Average Integrated Area” value ([2]; 3-NOP:Adsorbent 1:2.5, distilled water at 1% 3-NOP loading) was 2266.6.

For `CC#CC(=O)OCC` [ethyl 2-butynoate], the “sensitivity to the inhibitor, ranking” value (Mbb. Ruminantium; pure cultures) is listed as “most sensitive”, the “sensitivity to the inhibitor, ranking” value (Methanosarcina mazei; pure cultures) is listed as “least sensitive” and the “sensitivity to the inhibitor, ranking” value (Methanomicrobium mobile; pure cultures) is listed as “intermediate”.

In the case of `CC[C@H](C)C(=O)O[C@H]1C[C@@H](C)C=C2C=C[C@H](C)[C@H](CC[C@@H]3C[C@@H](O)CC(=O)O3)[C@H]21` [lovastatin], the “reduction of total CH4 production by rumen methanogens” value (rumen methanogens; extracted from fermented rice straw, after 48 h in vitro incubation) is given as roughly 28% and the “reduction of CH4 production” value (rumen methanogens; rumen simulation technique (Rusitec), 150 mg/L) is given as “approximately 42%”.

For `O=c1[nH]c(=O)c2nccnc2[nH]1` [lumazin, 2,4-pteridinedione], the CH4 production (Mbb. Ruminantium; [6]) is listed as “significantly decreased”, the CH4 production (Methanosarcina mazei; [6]) is listed as “significantly decreased” and the CH4 production (Methanomicrobium mobile; [6]) is listed as “significantly decreased”.

For Bovicin HC5, the “suppression of CH4 in vitro” value (rumen methanogens) is listed as 50%.

For Catechin, the CH4 production (rumen methanogens) is given as “decreased CH4 production both in vitro and in vivo”.

Work on Cyclodextrin yielded a 3-NOP concentration [1, 5] of 7.676 mM.

For Nisin, the “suppression of CH4 in vitro” value (rumen methanogens) is given as “up to 40%”.

B1: ARK015: mRNA: OVA + STOP, cytosolic OVA; SEQ ID NO: 16675 (nucleic acid)
chain: ATGTTCGTGTTCCTCGTGCTCCTGCCCCTCGTCTCCAGCCAGTGCGTGGGGTCCATAGGGGCTGCTTCTATGGAGTTCTGTTTTGATGTTTTCAAGGAACTGAAGGTTCACCATGCTAACGAGAACATCTTTTACTGTCCAATAGCCATCATGAGTGCGCTTGCTATGGTTTATTTGGGTGCAAAAGATTCTACTCGCACTCAGATTAATAAGGTCGTTAGATTCGACAAGCTTCCAGGGTTTGGAGACAGTATTGAGGCCCAATGTGGAACGTCAGTCAACGTCCATTCTTCTCTGCGGGACATTCTCAACCAAATAACGAAGCCAAACGACGTGTATTCCTTCTCACTCGCGTCACGGCTGTATGCTGAAGAAAGGTATCCTATCTTGCCAGAATATCTCCAGTGCGTCAAGGAGTTGTATCGAGGCGGACTGGAACCGATCAACTTTCAGACTGCAGCCGACCAGGCCCGCGAACTGATCAACAGCTGGGTCGAGTCTCAGACCAATGGGATCATACGCAATGTGTTGCAACCGAGTAGTGTCGACTCTCAGACGGCTATGGTCTTGGTGAACGCTATAGTCTTCAAAGGTCTGTGGGAGAAGACCTTCAAGGATGAAGACACACAAGCGATGCCATTCAGAGTCACCGAACAAGAAAGCAAACCCGTCCAAATGATGTACCAAATTGGGCTTTTTCGGGTGGCCTCTATGGCCTCTGAGAAAATGAAAATATTGGAACTGCCCTTCGCCAGCGGCACAATGAGTATGTTGGTCCTTCTTCCAGATGAAGTCTCAGGTCTCGAACAGCTTGAGTCTATCATTAACTTTGAGAAACTCACTGAATGGACTTCTTCCAATGTGATGGAAGAACGAAAAATCAAAGTCTACCTGCCCCGAATGAAGATGGAAGAGAAATATAATTTGACATCAGTTCTGATGGCCATGGGAATCACAGACGTGTTTTCATCCTCTGCGAATCTGTCTGGCATATCTTCCGCAGAATCTCTCAAGATCAGTCAAGCCGTCCACGCGGCCCATGCTGAGATAAATGAGGCGGGCAGAGAGGTGGTGGGGTCCGCCGAAGCTGGAGTCGACGCAGCTTCTGTCAGTGAAGAATTTAGGGCCGATCATCCTTTCCTGTTCTGCATAAAGCACATAGCTACGAACGCTGTGCTTTTCTTTGGCAGATGCGTTTCTCCATGA
modifications: listed as DNA
In the case of B1, the “Serum IgG Concentration” value (total IgG; IM injection, Day 0, dairy cows, dose 348-468 ug) is reported as 3,658 mg/dL and 4,086 mg/dL and 3,167 mg/dL, the “Serum IgG Concentration” value (total IgG; IM injection, Day 14, dairy cows, dose 348-468 ug) is reported as 3,692 mg/dL and 5,735 mg/dL and 3,947 mg/dL and the “Serum IgG Concentration” value (total IgG; IM injection, Day 21, dairy cows, dose 348-468 ug) is reported as 4,070 mg/dL and 2,488 mg/dL and 3,797 mg/dL. For the same molecule, the “Serum IgG Concentration” value (total IgG; IM injection, Day 28, dairy cows, dose 348-468 ug) was 3,272 mg/dL and 4,153 mg/dL and 2,723 mg/dL, the “Serum IgG Concentration” value (total IgG; SQ injection, Day 0, dairy cows, dose 353-468 ug) was 4,875 mg/dL and 3,680 mg/dL and 2,964 mg/dL and the “Serum IgG Concentration” value (total IgG; SQ injection, Day 14, dairy cows, dose 353-468 ug) was 5,972 mg/dL and 3,257 mg/dL and 3,894 mg/dL. For the same molecule, the “Serum IgG Concentration” value (total IgG; SQ injection, Day 21, dairy cows, dose 353-468 ug) was 5,722 mg/dL and 3,149 mg/dL and 3,981 mg/dL, the “Serum IgG Concentration” value (total IgG; SQ injection, Day 28, dairy cows, dose 353-468 ug) was 4,015 mg/dL and 3,009 mg/dL and 2,221 mg/dL and the “total sera IgG immune response, treated groups normalized against the empty groups” value (total IgG; dairy cows, 3 animals per construct, 28-day test period, FIG. 9) was “detectable immune response in at least one of the treated animals”. The Encapsulation efficiency ([3]; mRNA LNPs of Table 18) was 62%, the Encapsulation efficiency ([3]; mRNA LNPs, Example 6) was 84% and the “OVA-specific IgG, Absorbance (OD450)” value (ovalbumin (OVA); IM injection, Day 0, dairy cows) was 0.842 OD450 and 0.938 OD450 and 0.308 OD450. For the same molecule, the “OVA-specific IgG, Absorbance (OD450)” value (ovalbumin (OVA); IM injection, Day 14, dairy cows) was 1.653 OD450 and 1.048 OD450 and 0.513 OD450, the “OVA-specific IgG, Absorbance (OD450)” value (ovalbumin (OVA); IM injection, Day 21, dairy cows) was 1.23 OD450 and 1.261 OD450 and 0.443 OD450 and the “OVA-specific IgG, Absorbance (OD450)” value (ovalbumin (OVA); IM injection, Day 28, dairy cows) was 1.097 OD450 and 0.999 OD450 and 0.465 OD450. The “OVA-specific IgG, Absorbance (OD450)” value (ovalbumin (OVA); SQ injection, Day 0, dairy cows) was 1.394 OD450 and 1.327 OD450 and 3.178 OD450, the “OVA-specific IgG, Absorbance (OD450)” value (ovalbumin (OVA); SQ injection, Day 14, dairy cows) was 1.287 OD450 and 1.175 OD450 and 2.478 OD450 and the “OVA-specific IgG, Absorbance (OD450)” value (ovalbumin (OVA); SQ injection, Day 21, dairy cows) was 1.504 OD450 and 1.277 OD450 and 1.985 OD450. For the same molecule, the “OVA-specific IgG, Absorbance (OD450)” value (ovalbumin (OVA); SQ injection, Day 28, dairy cows) was 1.368 OD450 and 1.066 OD450 and 1.691 OD450, the “OVA-specific IgG response, intramuscular as compared to subcutaneous injection” value (ovalbumin (OVA); dairy cows, FIG. 10) was roughly 4 fold and the PDI ([4]; LNP polydispersity, mRNA LNPs of Table 18) was 0.130. For the same molecule, the Z-avg. ([4]; LNP size, mRNA LNPs of Table 18) was 68.06 nm·days, the PDI ([4]; mRNA LNPs, Example 6) was 0.1705 and the “Z-avg.” value ([4]; mRNA LNPs, Example 6) was 96.66 nm·days.
